Converted amounts (≈) assume the structure as drawn. The source made the active and inactive calls. The rule behind the calls is not given here. Where a SMILES comes first, the peptide text is derived from it. Bridges are numbered along the chain shown (N, C = ends). [ ]: non-standard residue; d: D form. NMeW = CN[C@@H](Cc1c[nH]c2ccccc12)C(=O)O; NMeF = CN[C@@H](Cc1ccccc1)C(=O)O; NMeT = CN[C@H](C(=O)O)[C@@H](C)O; NMeL = CN[C@@H](CC(C)C)C(=O)O; NMeV = CN[C@H](C(=O)O)C(C)C; NMeA = CN[C@@H](C)C(=O)O
Tests used:
[1] = system: Mycobacterium tuberculosis; assay: Antibacterial activity against Mycobacterium tuberculosis mc2 6230 assessed as reduction in viable cells at 10 times MIC measured for 42 days in solid media by time kill assay; format: functional
[2] = system: Pseudomonas aeruginosa; assay: Antibacterial activity against Pseudomonas aeruginosa ATCC 27853 assessed as bacterial growth inhibition incubated for 18 to 20 hrs by broth microdilution method; format: functional; conditions: time 18-20 hrs
[3] = system: Escherichia coli; assay: Antibacterial activity against Escherichia coli K-12 MG1655 assessed as bacterial growth inhibition incubated for 18 to 20 hrs by broth microdilution method; format: functional; conditions: time 18-20 hrs
[4] = system: Enterococcus faecalis; assay: Antibacterial activity against Enterococcus faecalis ATCC 29212 assessed as bacterial growth inhibition incubated for 18 to 20 hrs by broth microdilution method; format: functional; conditions: time 18-20 hrs
[5] = system: Mycobacterium tuberculosis; assay: Synergistic antimycobacterial activity against Mycobacterium tuberculosis mc2 6230 assessed as fractional inhibitory concentration incubated for 7 days in presence of clofazimine by checkerboard assay; format: functional; conditions: time 7 day
[6] = system: Mycobacterium tuberculosis; assay: Synergistic antimycobacterial activity against Mycobacterium tuberculosis mc2 6230 assessed as fractional inhibitory concentration incubated for 7 days in presence of ethambutol by checkerboard assay; format: functional; conditions: time 7 day
[7] = system: Brucella anthropi; assay: Antibacterial activity against Ochrobactrum anthropi ATCC 49687 assessed as bacterial growth inhibition incubated for 18 to 20 hrs by broth microdilution method; format: functional; conditions: time 18-20 hrs
[8] = system: Mycobacterium marinum; assay: Antimycobacterial activity against Mycobacterium marinum infected in zebrafish assessed as reduction in bacterial burden at 10 uM in presence of rifampicin after 6 days post infection; format: functional; set-up: scale not given: the % may be the effect or the level left; conditions: time 6 day
[9] = system: Mycobacterium tuberculosis; assay: Synergistic antimycobacterial activity against Mycobacterium tuberculosis mc2 6230 assessed as fractional inhibitory concentration incubated for 7 days in presence of isoniazid by checkerboard assay; format: functional; conditions: time 7 day
[10] = system: Bacillus subtilis; assay: Antibacterial activity against Bacillus subtilis ATCC 6051 assessed as bacterial growth inhibition incubated for 18 to 20 hrs by broth microdilution method; format: functional; conditions: time 18-20 hrs
[11] = system: Salmonella enterica; assay: Antibacterial activity against Salmonella enterica ATCC 13311 assessed as bacterial growth inhibition incubated for 18 to 20 hrs by broth microdilution method; format: functional; conditions: time 18-20 hrs
[12] = system: Mycobacterium marinum; assay: Antimycobacterial activity against Mycobacterium marinum infected in zebrafish assessed as reduction in bacterial burden at 10 uM after 6 days post infection; format: functional; set-up: scale not given: the % may be the effect or the level left; conditions: time 6 day
[13] = system: Yersinia pseudotuberculosis; assay: Antibacterial activity against Yersinia pseudotuberculosis ATCC 6904 assessed as bacterial growth inhibition incubated for 18 to 20 hrs by broth microdilution method; format: functional; conditions: time 18-20 hrs
[14] = system: Mycobacterium tuberculosis; assay: Bactericidal activity against Mycobacterium tuberculosis mc2 6230 at 10 time MIC monitored for 28 days under hypoxic non-replicating culture condition by time kill assay; format: functional, organism-based; conditions: time 28.0 day
[15] = system: Vibrio cholerae; assay: Antibacterial activity against Vibrio cholerae A1552 El Tor assessed as bacterial growth inhibition incubated for 18 to 20 hrs by broth microdilution method; format: functional; conditions: time 18-20 hrs
[16] = system: Shigella sonnei; assay: Antibacterial activity against Shigella sonnei ATCC 25931 assessed as bacterial growth inhibition incubated for 18 to 20 hrs by broth microdilution method; format: functional; conditions: time 18-20 hrs
[17] = system: Providencia alcalifaciens; assay: Antibacterial activity against Providencia alcalifaciens ATCC 9886 assessed as bacterial growth inhibition incubated for 18 to 20 hrs by broth microdilution method; format: functional; conditions: time 18-20 hrs
[18] = system: Staphylococcus epidermidis; assay: Antibacterial activity against Staphylococcus epidermidis ATCC 14990 assessed as bacterial growth inhibition incubated for 18 to 20 hrs by broth microdilution method; format: functional; conditions: time 18-20 hrs
[19] = system: Mycobacterium tuberculosis; assay: Antimycobacterial activity against Mycobacterium tuberculosis mc2 6230 measured after 7 days by Time kill assay; format: functional, organism-based; conditions: time 7.0 day
[20] = system: Acinetobacter baumannii; assay: Antibacterial activity against Acinetobacter baumannii ATCC 19606 assessed as bacterial growth inhibition incubated for 18 to 20 hrs by broth microdilution method; format: functional; conditions: time 18-20 hrs
[21] = system: Mycobacterium tuberculosis; assay: Synergistic antimycobacterial activity against Mycobacterium tuberculosis mc2 6230 assessed as fractional inhibitory concentration incubated for 7 days in presence of pyrazinamide by checkerboard assay; format: functional; conditions: time 7 day
[22] = system: Streptococcus pneumoniae; assay: Antibacterial activity against Streptococcus pneumoniae ATCC 49619 assessed as bacterial growth inhibition incubated for 18 to 20 hrs by broth microdilution method; format: functional; conditions: time 18-20 hrs
[23] = system: Mycobacterium tuberculosis; assay: Antimycobacterial activity against Mycobacterium tuberculosis mc2 6230 measured after 7 days; format: functional; conditions: mc2 6230, 168 h, time 7 day
[24] = system: Mycobacterium marinum; assay: Antimycobacterial activity against tdTomato fluorescent Mycobacterium marinum infected in zebrafish assessed as reduction in bacterial burden at 25 uM pre-infected with bacteria for 4 to 5 days followed by compound addition and measured after day 6 post infection by microscopic analysis relative to control; format: functional; set-up: scale not given: the % may be the effect or the level left; conditions: time 4-5 day
[25] = system: Enterococcus faecium; assay: Antibacterial activity against Enterococcus faecium ATCC 6569 assessed as bacterial growth inhibition incubated for 18 to 20 hrs by broth microdilution method; format: functional; conditions: time 18-20 hrs
[26] = system: Mycobacterium tuberculosis; assay: Synergistic antimycobacterial activity against Mycobacterium tuberculosis mc2 6230 assessed as fractional inhibitory concentration incubated for 7 days in presence of bedaquiline by checkerboard assay; format: functional; conditions: time 7 day
[27] = system: Mycolicibacterium smegmatis; assay: Enhancement of hexameric Mycobacterium smegmatis ClpC1 ATPase activity assessed as fold increase at 100 uM incubated for 30 mins by ATP/NADH spectrophotometric analysis; conditions: filed as activator
[28] = system: Listeria ivanovii; assay: Antibacterial activity against Listeria ivanovii BAA-139 assessed as bacterial growth inhibition incubated for 18 to 20 hrs by broth microdilution method; format: functional; conditions: time 18-20 hrs
[29] = system: Staphylococcus aureus; assay: Antibacterial activity against methicillin-sensitive Staphylococcus aureus ATCC 29213 assessed as bacterial growth inhibition incubated for 18 to 20 hrs by broth microdilution method; format: functional; conditions: time 18-20 hrs
[30] = system: Staphylococcus aureus; assay: Antibacterial activity against methicillin-resistant Staphylococcus aureus BAA-44 assessed as bacterial growth inhibition incubated for 18 to 20 hrs by broth microdilution method; format: functional; conditions: time 18-20 hrs
[31] = system: Mycobacterium tuberculosis; assay: Synergistic antimycobacterial activity against Mycobacterium tuberculosis mc2 6230 assessed as fractional inhibitory concentration incubated for 7 days in presence of rifampicin by checkerboard assay; format: functional; conditions: time 7 day
[32] = system: Klebsiella pneumoniae; assay: Antibacterial activity against Klebsiella pneumoniae ATCC 700603 assessed as bacterial growth inhibition incubated for 18 to 20 hrs by broth microdilution method; format: functional; conditions: time 18-20 hrs
[33] = system: Klebsiella aerogenes; assay: Antibacterial activity against Klebsiella aerogenes ATCC 35029 assessed as bacterial growth inhibition incubated for 18 to 20 hrs by broth microdilution method; format: functional; conditions: time 18-20 hrs
[34] = system: Mycobacterium marinum; assay: Antimycobacterial activity against mid-exponential phase Mycobacterium marinum M strain incubated for 2 days by fluorescence assay; format: functional; conditions: 48 h, time 2 day
[35] = system: Mycolicibacterium smegmatis; assay: Enhancement of Mycobacterium smegmatis ClpC1 ATPase activity assessed as inhibition of ClpC1/ClpP1P2 complex-mediated beta-casein proteolysis incubated for 30 to 60 mins by in vitro degradation assay; conditions: filed as activator, time 30-60 min
[36] = system: Mycobacterium tuberculosis; assay: Antimycobacterial activity against Mycobacterium tuberculosis mc2 6230 assessed as log reduction in bacteria measured up to 21 days by Time kill assay; format: functional, organism-based; conditions: time day <=21

NNC(=O)c1ccncc1
Activity ([1]; time 42.0 day): inactive

CN[C@H](C(=O)N[C@H](C(=O)N[C@@H]1C(=O)N(C)[C@@H]([C@@H](C)O)C(=O)N[C@@H](C(C)C)C(=O)N(C)[C@@H](CC(C)C)C(=O)N[C@@H](C(C)C)C(=O)N(C)[C@@H](C)C(=O)N(C)[C@@H](Cc2c[nH]c3ccccc23)C(=O)N[C@@H](C(C)C)C(=O)N[C@@H](Cc2ccccc2)C(=O)N[C@@H](C(C)C)C(=O)O[C@@H]1C)C(C)C)C(C)C (H-[NMeV]VT[NMeT]V[NMeL]V[NMeA][NMeW]VFV; ester 3-C)
MIC [2]: > 128 µM | MIC [3]: > 128 µM | MIC [4]: > 128 µM | FIC [5]: 2 | FIC [6]: 0.75 | MIC [7]: > 128 µM | Activity [8]: 83% | FIC [9]: 2 | Activity ([1]; time 42 day): 6 log10CFU/ml | MIC [10]: 128 µM (≈ 177 µg/mL) | MIC [11]: > 128 µM | Activity [12]: 50% | MIC [13]: > 128 µM | Activity [14]: Active | MIC [15]: > 128 µM | MIC [16]: > 128 µM | MIC [17]: > 128 µM | MIC [18]: > 128 µM | Activity [19]: Active | MIC [20]: > 128 µM | FIC [21]: 2 | MIC [22]: > 128 µM | MIC [23]: 0.5 µM (≈ 0.692 µg/mL) | Activity [24]: 76% | MIC [25]: > 128 µM | FIC [26]: 3 | fold change (FC) [27]: 3 | MIC [28]: > 128 µM | MIC [29]: > 128 µM | MIC [30]: > 128 µM | FIC [31]: 0.375 | MIC [32]: > 128 µM | MIC [33]: 128 µM (≈ 177 µg/mL) | MIC50 [34]: 1.44 µM (≈ 1.99 µg/mL) | Activity [35]: Active

CN[C@H](C(=O)N[C@H](C(=O)N[C@@H]1C(=O)N(C)[C@@H]([C@@H](C)O)C(=O)N[C@@H](C(C)C)C(=O)N(C)[C@@H](CC(C)C)C(=O)N[C@@H](C(C)C)C(=O)N(C)[C@@H](Cc2ccccc2)C(=O)N(C)[C@@H](Cc2c[nH]c3ccccc23)C(=O)N[C@@H](C(C)C)C(=O)N[C@@H](Cc2ccccc2)C(=O)N[C@@H](C(C)C)C(=O)O[C@@H]1C)C(C)C)C(C)C (H-[NMeV]VT[NMeT]V[NMeL]V[NMeF][NMeW]VFV; ester 3-C)
MIC [23]: 0.125 µM (≈ 0.183 µg/mL) | inhibition [35]: Active

CN[C@H](C(=O)N[C@H](C(=O)N[C@@H]1C(=O)N(C)[C@@H]([C@@H](C)O)C(=O)N[C@@H](C(C)C)C(=O)N(C)[C@@H](CC(C)C)C(=O)N[C@@H](C(C)C)C(=O)N(C)[C@@H](CC(C)C)C(=O)N(C)[C@@H](Cc2c[nH]c3ccccc23)C(=O)N[C@@H](C(C)C)C(=O)N[C@@H](Cc2ccccc2)C(=O)N[C@@H](C(C)C)C(=O)O[C@@H]1C)C(C)C)C(C)C (H-[NMeV]VT[NMeT]V[NMeL]V[NMeL][NMeW]VFV; ester 3-C)
Activity [36]: Active | MIC [23]: 0.25 µM (≈ 0.357 µg/mL)

Reference: ChEMBL document CHEMBL5046300, “Potent Bactericidal Antimycobacterials Targeting the Chaperone ClpC1 Based on the Depsipeptide Natural Products Ecumicin and Ohmyungsamycin A” (2022)
